In US9883996B2, “Methods and compositions for enhancing skin pigmentation” (THE GENERAL HOSPITAL CORPORATION, priority 2014, dated 2018):
Entries after “also recorded” stand apart in the source; their conditions may differ. One block for each compound: values may come before it.

Experiments:
[1] = test system: Melanocytes 1; test: Toxicity via ATP-based assay (Cell titer glow); settings: ATP-based assay 2 days after start of treatment
Description: (§1) Three different NNT inhibitors were tested for efficacy and toxicity in melanocytes and melanoma cells. […] Toxicity measured via ATP-based assays (Cell titer glow) 2 days after start of treatment.

[2] = test system: Melanocytes 2; test: Toxicity via ATP-based assay (Cell titer glow); settings: ATP-based assay 2 days after start of treatment
Description: as §1

[3] = test system: Dermal Fibroblasts; test: Toxicity via ATP-based assay (Cell titer glow); settings: ATP-based assay 2 days after start of treatment
[4] = test system: Keratinocytes; test: Toxicity via ATP-based assay (Cell titer glow); settings: ATP-based assay 2 days after start of treatment
[5] = test system: human skin explants; test: Pigmentation of human skin explants treated topically or intradermally with NNT inhibitors (visual inspection, colorimeter, Fontana-Masson staining); format: cell-based; settings: for microscopic pigmentation / eumelanin, Fontana-Masson staining: 50 mM, once per day for 5 consecutive days; for human skin pigmentation (darkening): daily application for 5 days
Description: Human skin explants obtained from subjects undergoing abdominoplasty were defatted and grown on 2% agar plates for 10 days. These explants were treated topically or intradermally with NNT inhibitors. […]
In addition, skin patches (Fitzpatrick Type II) were topically treated for 4 days with 2,3 butane-dione at the following concentrations: 0.4% w/v (˜47 mM), 0.8% w/v, 1.6% w/v, 3.12% w/v, 6.25% w/v, 12.5% w/v, and 25% w/v.

[6] = test system: Melan-A cells; test: Measurement of eumelanin in murine melanocytes; format: cell-based
[7] = test system: human skin; test: Cyclobutane dimer (CPD) staining of treated human skin, DNA damage; format: cell-based; settings: 50 mM once per day for 5 days; for CPD formation after UVB irradiation: then 1000 mJ/cm^2 UVB, vs DMSO+UVB control
Description: Cyclobutane dimer (CPD) staining was performed on human skin treated with 50 mM 2,3butanedione for 5 consecutive days (treatment once per day) as a marker to assess DNA damage in the skin samples. On the fifth day, skin was irradiated with 1000 mJ/cm^2 UVB (equivalent to approximately 3 h in the sun at equatorial areas).

[8] = test system: human skin explants; test: H&E staining of treated skin samples (inflammation, skin damage); format: cell-based; settings: 50 mM, skin patches
[9] = test system: UACC257 melanoma cells; test: GSH/GSSG measurements after DCC treatment; format: cell-based, human; settings: 3 days after DCC treatment
Description: (§2) FIGS. 7A-7C show GSH/GSSG ratios 3 days after N,N-Dicyclohexylcarbodiimide (DCC) treatment. To confirm the observation by Moody et al. (Biochem J., 1983) that DCC and Butanedione inhibit NNT enzyme activity, GSH/GSSG measurements were performed in human melanoma and primary melanocytes. […] FIG. 7A, GSH and GSSG measurements in UACC257 melanoma cells. FIG. 7B, GSH and GSSG measurements in primary melanocytes (PM) WM26 cells. FIG. 7C, GSH/GSSG ratios of UACC257 melanoma and […] primary melanocytes. *, indicates significant differences (p<0.05).
(§3) In one embodiment GSH/GSSG ratios are determined using the GSH/GSSG-GLO assay commercially available from PROMEGA.

[10] = test system: primary melanocytes (PM) WM26 cells; test: GSH/GSSG measurements after DCC treatment; format: cell-based, human; settings: primary melanocytes WM26, 3 days after DCC treatment
Description: as §2, §3

[11] = test system: UACC 257 melanoma; test: BrdU ELISA toxicity; format: cell-based, human; settings: 3 days after treatment
Description: (§4) FIGS. 8A-8B show BrdU ELISA data 3 days after DCC treatment.
(§5) In one embodiment, the viability of a cell or the proliferation of a cell is determined using a bromodeoxyuridine (BrdU) assay. BrdU is a synthetic analog of thymidine that is commonly used in the detection of proliferating cells in living tissues. BrdU can be incorporated into the newly synthesized DNA of replicating cells (during the S phase of the cell cycle), substituting for thymidine during DNA replication. Antibodies specific for BrdU can then be used to detect the incorporated chemical, thus indicating cells that were actively replicating their DNA. BrdU assays are well known to those of skill in the art and are not described in detail herein. In some embodiments, an ATP=based measurement can be used (e.g., Cell Titer Glow™).

[12] = test system: WM26 primary melanocytes; test: BrdU ELISA toxicity; format: cell-based, human; settings: 3 days after treatment
Description: as §4, §5

Compound: CC(=O)C(C)=O [2,3 Butanedione, 2,3-butanedione]
IC50 ([1]; Melanocyte, 48 h): > 10 µM | IC50 ([2]; Melanocyte, 48 h): > 10 µM | IC50 ([3]; Fibroblast, 48 h): > 10 µM | IC50 ([4]; Keratinocyte, 48 h): > 10 µM | microscopic pigmentation / eumelanin, Fontana-Masson staining [5]: increase in eumelanin expression | microscopic pigmentation / eumelanin, Fontana-Masson staining ([5]; listed as 2,3 BD): significant microscopic pigmentation | pigmentation compared with one-time UV-B treatment at 150 mJ/cm^2 ([5]; Fitzpatrick Type II skin patches, topical 4 days, lowest concentration 0.4% w/v (~47 mM)): darker than the pigmentation induced by a one-time UV-B treatment | pigmentation with increasing concentrations ([5]; Skin type 2 (Fitzpatrick Scale) explant, in DMSO): increase pigmentation | lowest dose at which visible changes in skin pigmentation were observed ([5]; once per day for five consecutive days, all three skin types (Fitzpatrick I-II, III-IV, V-VI), lowest dose tested): 1.2 µM | human skin pigmentation (darkening) ([5]; topical, human skin explants): visible increase of human skin pigmentation | human skin pigmentation (darkening) ([5]; topical, human skin explants, listed as 2,3 BD): significant darkening | pigmentation (eumelanin) ([6]; 2 mM): increased pigmentation | pigmentation (eumelanin) ([6]; 10 mM): increased pigmentation | CPD formation after UVB irradiation ([7]; listed as 2, 3, butanedione): decrease in CPD | CPD formation after UVB irradiation ([7]; listed as 2,3BD): protective role | CPD formation in the absence of UV radiation exposure ([7]; vs DMSO treated control): decrease in CPD formation | inflammation or skin damage, H&E staining [8]: no inflammation was observed | inflammation or skin damage, H&E staining ([8]; listed as 2,3 BD): No significant inflammation or skin damage

Compound: C(=NC1CCCCC1)=NC1CCCCC1 [DCC, N,N-Dicyclohexylcarbodiimide]
IC50 [1]: > 10 µM | IC50 [2]: > 10 µM | IC50 [3]: > 10 µM | IC50 [4]: > 10 µM | human skin pigmentation (darkening) ([5]; topical, human skin explants): significant darkening; also recorded: visible increase of human skin pigmentation | GSH/GSSG ratios [9]: decreased in a dose-dependent manner | GSH/GSSG ratios [10]: decreased in a dose-dependent manner | cell death (BrdU ELISA) [11]: no significant induction of cell death | cell death (BrdU ELISA) [12]: no significant induction of cell death | pigmentation (eumelanin) ([6]; 10 mM): increased pigmentation

skin penetration after topical application ([5]; topical, human skin explants): unable to penetrate
Compound: CCCCCCCCCCCCCCCC(=O)SCCNC(=O)CCNC(=O)[C@H](O)C(C)(C)COP(=O)(O)OP(=O)(O)OC[C@H]1O[C@@H](n2cnc3c(N)ncnc32)[C@H](O)[C@@H]1OP(=O)(O)O [Palmitoyl-CoA, palmitoyl CoA]
IC50 ([1]; Melanocyte, 48 h): > 10 µM | IC50 ([2]; Melanocyte, 48 h): > 10 µM | IC50 ([3]; Fibroblast, 48 h): > 10 µM | IC50 ([4]; Keratinocyte, 48 h): > 10 µM | skin darkening after intradermal treatment ([5]; intradermal, human skin explants): induced darkening
